Test results taken from a compilation of properties of binary mixtures (doi:10.1016/j.molliq.2019.111925).

Experiment: xn = mol fraction of the nth substance listed
Conditions: 100 kPa

O + CC(=O)[O-].CC[n+]1ccn(C)c1
x2 = 0
Conditions	speed of sound [m/s]
293.15 K	1485
298.15 K	1499
303.15 K	1511
333.15 K	1551
343.15 K	1554

CC(=O)[O-].CC[n+]1ccn(C)c1 + O
Conditions	electrical conductivity [S/m]	speed of sound [m/s]
293.15 K, x1 = 0.105	–	1942
293.15 K, x1 = 0.1988	–	1959
293.15 K, x1 = 0.2003	1.59	–
293.15 K, x1 = 0.3952	0.833	–
293.15 K, x1 = 0.4445	–	1852
293.15 K, x1 = 0.5602	–	1776
293.15 K, x1 = 0.5984	0.49	–
293.15 K, x1 = 0.7375	–	1778
293.15 K, x1 = 0.8521	–	1762
293.15 K, x1 = 0.9481	0.228	–
293.15 K, x2 = 0.0174	–	1753
298.15 K, x1 = 0.4445	–	1839
298.15 K, x1 = 0.5602	–	1764
298.15 K, x1 = 0.7375	–	1765
298.15 K, x1 = 0.8521	–	1749
298.15 K, x1 = 0.9481	0.301	–
298.15 K, x1 = 1	0.299	1740
298.15 K, x2 = 0.0174	–	1740
303.15 K, x1 = 0.105	–	1917
303.15 K, x1 = 0.1988	–	1932
303.15 K, x1 = 0.3952	1.28	–
303.15 K, x1 = 0.4445	–	1827
303.15 K, x1 = 0.5602	–	1753
303.15 K, x1 = 0.5984	0.776	–
303.15 K, x1 = 0.7375	–	1753
303.15 K, x1 = 0.8521	–	1736
303.15 K, x1 = 0.9481	0.392	–
303.15 K, x1 = 1	0.391	1727
303.15 K, x2 = 0.0174	–	1726
313.15 K, x1 = 0.1988	–	1904
313.15 K, x1 = 0.2003	3.32	–
313.15 K, x1 = 0.3952	1.84	–
313.15 K, x1 = 0.4445	–	1803
313.15 K, x1 = 0.5602	–	1729
313.15 K, x1 = 0.5984	1.16	–
313.15 K, x1 = 0.7375	–	1729
313.15 K, x1 = 0.7987	0.819	–
313.15 K, x1 = 0.8521	–	1712
313.15 K, x1 = 0.9481	0.627	–
313.15 K, x1 = 1	0.625	1701
313.15 K, x2 = 0.0174	–	1701
323.15 K, x1 = 0.105	–	1864
323.15 K, x1 = 0.2003	4.45	–
323.15 K, x1 = 0.3952	2.52	–
323.15 K, x1 = 0.4445	–	1779
323.15 K, x1 = 0.5602	–	1707
323.15 K, x1 = 0.7375	–	1705
323.15 K, x1 = 0.7987	1.19	–
323.15 K, x1 = 0.8521	–	1687
323.15 K, x1 = 0.9481	0.934	–
323.15 K, x1 = 1	0.929	1676
323.15 K, x2 = 0.0174	–	1676
333.15 K, x1 = 0.105	–	1846
333.15 K, x1 = 0.1988	–	1848
333.15 K, x1 = 0.2003	5.75	–
333.15 K, x1 = 0.3952	3.32	–
333.15 K, x1 = 0.5602	–	1690
333.15 K, x1 = 0.5984	2.19	–
333.15 K, x1 = 0.7375	–	1682
333.15 K, x1 = 0.7987	1.64	–
333.15 K, x1 = 0.8521	–	1664
343.15 K, x1 = 0.105	–	1809
343.15 K, x1 = 0.4445	–	1731
343.15 K, x1 = 0.5602	–	1668
343.15 K, x1 = 0.7375	–	1659
343.15 K, x1 = 0.9481	1.76	–
343.15 K, x2 = 0.0174	–	1629
353.15 K, x1 = 0.9481	2.28	–
353.15 K, x1 = 1	2.28	–
